The results in this text go back to PMC11550998, “Novel 5-HT7 receptor antagonists modulate intestinal immune responses and reduce severity of colitis” (American Journal of Physiology - Gastrointestinal and Liver …, 2024).

One series addresses CYP2C9 (Homo sapiens, UniProt P11712). Nature of the series: Cytochrome P450 inhibition assay, 2C9 (fluorescent substrate). In kind it is in vitro ADME. Particulars: expressed enzyme. How it is done: Compounds were assessed for their ability to inhibit human cytochrome P450 3A4 using testosterone as a substrate and LC-MS/MS analysis, whereas the 2D6 and 2C9 assays used fluorescent substrates and EnVision plate reader analysis. Expressed enzymes were used to minimize nonspecific binding and membrane partitioning issues ([15]).

Series [1] relates to acute DSS-induced colitis. Briefly: Acute DSS-induced colitis model. The format is in vivo, C57BL/6 mice. An excerpt:
C57BL/6 (Taconic, Cambridge City, IN) for the DSS model of colitis, as well as C57BL/6 and Rag1^−/− mice (Jackson Laboratory, Bar Harbor, ME) for the T-cell transfer model, were kept in sterilized, filter-topped cages under specific pathogen-free conditions upon arrival and fed autoclaved food. Male mice aged 8–10 wk were used for all experiments. Mice were acclimatized for 7 days before the start of any experiments. All experiments were approved by the animal ethics committee of McMaster University and conducted under Canadian guidelines for animal research.
For induction of acute colitis, DSS (molecular mass 40 kDa; ICN; Biomedicals Incorporate, Solon, OH) was added to autoclaved drinking water at a final concentration of 4 or 5% wt/vol for 5 days. For the induction of chronic colitis, DSS was added to normal drinking water at a final concentration of 4% for 5 days, followed by 7 days of water. This cycle was repeated twice thereafter, with 2% DSS. Control mice received vehicle or normal drinking water.
For acute DSS-induced colitis, C576BL/6 mice were treated with MC-170073 (10 mg/kg of body wt) or vehicle (10% DMSO in normal saline) via intraperitoneal injection once daily for 6 days, starting 1 day before the beginning of DSS. In a separate experiment, C57BL/6 mice were orally administered with MC-230078 (10 mg/kg) or vehicle twice daily for 5 days, starting from the beginning of DSS. For chronic DSS-induced colitis, C57BL/6 mice were treated with MC-170073 (10 mg/kg ip) or vehicle once daily for 6 days, starting 1 day before the beginning of the third cycle. Last, for CD4^+CD45RB^high T cell-induced chronic colitis, reconstituted Rag1^−/− mice were orally administered MC-230078 (5 mg/kg or 10 mg/kg) or a vehicle twice daily for 10 days starting from week 6 post-reconstitution of T cells.
Disease activity index (DAI) is a combined score of weight loss, stool consistency, and fecal bleeding and was blindly assessed using a previously published scoring system ([19]). This scoring system was defined as follows: weight loss: 0 = no loss; 1 = 1–5%; 2 = 5–10%; 3 = 10–20%; 4 = 20%+; stool, 0 = normal; 2 = loose stool; 4 = diarrhea; and bleeding: 0 = no blood; 2 = hemoccult positive (Hemoccult II; Beckman Coulter, Fullerton, CA); and 4 = gross blood (blood around anus). DAI was measured across all days of DSS treatment. Macroscopic damage scores were blindly scored using a previously published scoring system for DSS-induced colitis ([19]).
Colonic myeloperoxidase (MPO) levels were measured following a published protocol ([19]). Briefly, colonic tissue samples were homogenized in ice-cold 50 mmol·L^−1 potassium phosphate buffer containing 0.5% hexadecyl trimethyl ammonium bromide (pH = 6.0) (Sigma). Homogenates were centrifuged, the supernatant was removed, and an aliquot was then added to a solution containing potassium phosphate buffer, O-dianisidine, and hydrogen peroxide (Sigma-Aldrich). The absorbance was measured at 450 nm by a spectrophotometer (model EL808, BioTek). MPO level was expressed in units per milligram of tissue, where 1 U is defined as the quantity of enzyme able to convert 1 μmol hydrogen peroxide to water per minute at room temperature.
Segments of the proximal colon were washed with PBS, fixed in 10% neutral-buffered formalin, washed with ethanol, and embedded in paraffin. Hematoxylin-eosin (H&E)-stained colonic tissue sections were scored using a previously published system ([19]): crypt architecture (normal = 0; severe crypt distortion with loss of entire crypts = 3), degree of inflammatory cell infiltration (normal = 0; dense inflammatory infiltrate = 3), muscle thickening (base of crypt sits on the muscularis mucosae = 0; marked muscle thickening present = 3), goblet cell depletion (absent = 0; present = 1), and crypt abscess (absent = 0; present = 1). A breakdown of scoring criteria can be seen in Supplemental Table S1. The histological damage score is the sum of each individual score. […]

Series [2] is described as follows: Mouse in vivo pharmacokinetic studies. On the set-up: species or system C57BL/6 male mice. Particulars: for bioavailability / AUC / Cmax / Tmax / clearance / half-life: male; for bioavailability: C57BL/6, mouse, plasma, oral, read-out: %F (oral bioavailability); for AUC / Cmax / Tmax / clearance / half-life: C57BL/6, plasma. How it is done: Adult C57BL/6 male mice (2–4 mo old, body weight ranging from 20 to 25 g, Charles River Laboratories) were maintained under controlled temperature (23 ± 1°C) and lighting (lights on 6:00 AM–6:00 PM) with food and water provided ad libitum. Pharmacokinetic studies were performed either via intravenous bolus infusion or through oral gavage. Mice were administered each compound intravenously by tail vein injection (1 mg/kg) or orally through gavage (5 mg/kg). Serial blood samples were collected at 5, 15, and 30 min and 1, 2, 4, 8, and 24 h after intravenous administration, and at 15, 30 min, and 1, 2, 4, 8, and 24 h after oral gavage administration. All blood samples were centrifuged at 1,500 g for 5 min. Pharmacokinetic study procedures were approved by Temple University’s Institutional Animal Care and Usage Committee and were in accordance with National Institutes of Health (NIH) guidelines. For all in vivo efficacy studies, experiments were approved by the animal ethics committee of McMaster University and conducted under Canadian guidelines for animal research.
Plasma concentrations were determined using an LC-MS/MS method. Briefly, 100-µL acetonitrile with an internal standard solution (Diltiazem, 0.1 μg/mL) was added to 50-µL plasma or tissue homogenate. After being vortexed for 1 min, the mixture was centrifuged at 3,000 g for 5 min. LC-MS/MS analysis was carried out using a high-performance liquid chromatography system consisting of an Agilent 1100 system interfaced to an API4000 SCIEX triple-quadrupole tandem mass spectrometer (Applied Biosystems/MDS Sciex, Foster City, CA). MC-170073, MC-230078, MC-230079, and the internal standard were separated by using a Phenomenex (Torrance, CA) C18 column (2.0 × 50 mm). The mobile phase consisted of solvent A (0.1% formic acid in water) and solvent B (0.1% formic acid in acetonitrile). A linear gradient of solvent B from 5 to 95% was used. The detection and quantification of analytes were performed with the m/z transition 347/191 for MC-170073, MC-230078, and MC-230079, and m/z 415/178 for diltiazem.

[3] abbreviates: 4% DSS 5 days, 10 mg/kg ip once daily 6 days.
Setting [4] is: 4% DSS 5 days, 10 mg/kg ip once daily 6 days, vs vehicle-treated mice.
[5] abbreviates: 5 mg/kg, 5 mg/kg oral vs 1 mg/kg IV.
Setting [6] is: 5% DSS 5 days, 10 mg/kg orally twice daily 5 days.
The mark [7] stands for this setting: 5% DSS, 10 mg/kg orally twice daily 5 days.
The mark [8] stands for this setting: 5% DSS, 10 mg/kg orally twice daily, day 5 post-DSS vs vehicle.

Each structure is given as a SMILES string.

Chain of CYP2C9 (P11712 whole entry): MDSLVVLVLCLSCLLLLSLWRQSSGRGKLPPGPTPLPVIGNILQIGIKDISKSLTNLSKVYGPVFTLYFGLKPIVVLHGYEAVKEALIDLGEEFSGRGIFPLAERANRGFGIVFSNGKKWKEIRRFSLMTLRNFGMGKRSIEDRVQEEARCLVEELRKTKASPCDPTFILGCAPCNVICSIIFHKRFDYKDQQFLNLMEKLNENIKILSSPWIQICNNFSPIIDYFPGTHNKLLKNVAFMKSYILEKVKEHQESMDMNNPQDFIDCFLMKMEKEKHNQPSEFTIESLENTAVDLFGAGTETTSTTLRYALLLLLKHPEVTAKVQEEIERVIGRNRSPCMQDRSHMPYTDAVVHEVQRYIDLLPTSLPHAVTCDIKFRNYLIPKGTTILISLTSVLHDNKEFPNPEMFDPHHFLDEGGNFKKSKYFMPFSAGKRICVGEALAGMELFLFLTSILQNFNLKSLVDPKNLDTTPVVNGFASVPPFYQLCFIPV

A word on the IC50: it is the concentration that inhibits the measured activity by half. A lower IC50 goes with inhibition by little substance. For orientation: bioavailability means the share of a dose that reaches the circulation, judged against a reference dose that is usually intravenous. By AUC is commonly meant concentration integrated over time. Broadly, the Cmax is the highest concentration seen after dosing. By Tmax is commonly meant the time from dosing to the highest level. By clearance is commonly meant the rate of elimination divided by the concentration. As usually defined, the half-life is the time needed for the level to fall by half in the phase considered. As to `CCC1(CC)CC(CCN2CCN(c3ccc(O)cc3)CC2)OC1=O` (centres unmarked) [MC-170073], the half-inhibitory concentration (IC50) on CYP2C9 was over 10 µM. In series [1] (setting [3]), the “colonic IL-1β level” value is “lower levels”, the “colonic IL-6 level” value is on record as “lower levels”, the “colonic MPO level” value was “lower levels” and the “colonic TNF-α level” value is “lower levels”. For the same molecule, in series [1] (setting [4]), the DAI scores result is on record as “significantly lower”, the histological damage scores entry was “significantly less severe” and the macroscopic scores entry is “lower”. Besides, the “%F (oral bioavailability)” value in series [2] (5 mg/kg oral vs 1 mg/kg IV) is reported as 17.5%. Also, the bioavailability in series [2] (setting [5]) came out at 17%. Also, in series [2] (IV, 1 mg/kg), the exposure (AUC) came out at 142 ng·h/mL, the Cmax was 81 ng/mL, the time of peak concentration (Tmax) was found to be 0.25 h and the clearance is 2.08 mL/min. Besides, the half-life in series [2] (IV, 1 mg/kg) is 4.4 h. Also, in series [2] (oral gavage, 5 mg/kg), the AUC was found to be 124 ng·h/mL, the Cmax worked out at 49 ng/mL, the time to peak (Tmax) amounted to 0.25 h and the half-life was 3.4 h. This molecule also gave a CL in series [2] (oral gavage, 5 mg/kg) of 0.73 L/h.

`CCC1(CC)C[C@@H](CCN2CCN(c3ccc(O)cc3)CC2)OC1=O` [MC-230078]: the IC50 against CYP2C9 was over 10 µM. In series [1] (setting [6]), the DAI result is “significantly lower” and the “body weight change during DSS” value was “no significant difference”. Also, in series [1] (setting [7]), the “colonic IL-1β level” value is given as “significantly lower” and the “colonic MPO level” value was “significantly lower”. Further, in series [1] (setting [8]), the histological scores entry was “significantly lower” and the macroscopic scores result is “significantly lower”. The bioavailability in series [2] (setting [5]) was 13.7%. In series [2] (IV, 1 mg/kg), the AUC was 277 ng·h/mL, the Cmax came out at 527 ng/mL, the time of peak concentration (Tmax) was 0.083 h and the clearance is 1.4 mL/min. Also, in series [2] (IV, 1 mg/kg), the half-life was 3.97 h. In series [2] (oral gavage, 5 mg/kg), the AUC worked out at 190 ng·h/mL, the peak level (Cmax) was 123 ng/mL, the time to peak (Tmax) came to 0.5 h and the half-life was 3.78 h. For the same molecule, the CL in series [2] (oral gavage, 5 mg/kg) was 0.511 L/h.
